In one series the test system is MeCP2. The series is described as follows: MeCP2 protein Western blot after transfection with miR132 or miR212 LNA. In kind it is cell-based, Human. The settings on record: HEL cells transfected with 500 pmol LNA; nuclear enriched extracts; versus scramble LNA. The source says: In order to assess the role of miR132 and miR212 in virus replication, miR132 and miR212 were inhibited using antisense locked nucleic acid (LNA) oligonucleotides targeting miR132 or miR212 Inhibition of miR132 and/or miR212 in this way counteracts the increase in miR132 or miR212 expression that occurs during HCMV infection. To test the efficacy of the LNAs, HEL cells were transfected with 500 pmol of scramble, miR132, or miR212 specific locked nucleic acid (Exiqon) to inhibit miRNA function. Nuclear enriched extracts were prepared, and protein levels were determined by Western blot.

Series [1] relates to HCMV proteins IE2, pp65, gB55. The series is described as follows: HCMV viral protein accumulation by Western blot after antisense miR132 LNA transfection. In kind it is cell-based. Particulars: HEL cells transfected, infected with HCMV; versus control LNA. The protocol: (§1) To determine the role of miR132 on HCMV replication, HEL cells were transfected with antisense miR132 LNA, and were infected with HCMV. The amount of virus released from infected cells was quantitated by plaque assay, and viral protein accumulation was analyzed by Western blot of protein lysates from infected cells. […] Taken together with the previous data, this experiment confirms that miR132 is necessary for efficient HCMV replication, and that HCMV replication can be effectively attenuated by inhibition of miR132.

The subject of series [2] is HCMV. In words: HCMV virus release by plaque assay after antisense miR132 LNA transfection. Particulars: for viral replication (virus release, viral proteins IE2, pp65, gB55): summary statement in the description, transfection of cells. The class given is cell-based. As to the method:
as §1

The next series deals with IRS-1. The series is described as follows: IRS-1 protein Western blot after transfection with miR145 mimic. In kind it is cell-based, Human. Particulars: HEL fibroblasts; 48, 72 and 96 hours post transfection; compared to control miRNA transfected cells. The protocol:
This experiment was performed to determine whether a miR145 mimic targets Insulin Receptor Substrate-1 (IRS-1) mRNA, which is a target of miR145, in HEL fibroblasts. HEL fibroblasts were transfected with either a control miRNA (ct) or miR145 mimic (145) (Dharmacon). Cell pellets were collected at 24, 48, 72 and 96 hours post transfection and lysed. Western blot was performed using an anti IRS-1 antibody (Upstate Biothechnology). Actin is shown as a loading control. […] This downregulation is not observed in the cells transfected with a control miRNA, or the mock-transfected cells.

For series [3], the system named is HCMV proteins IE2, pp65, gB55, IE1. In words: HCMV viral protein expression by western blot after miR145 mimic transfection. In kind it is cell-based. Particulars: HEL fibroblasts, HCMV MOI=1, 24-144 hpi; compared to control miRNA. The protocol:
These experiments were performed to establish the role of miR145 on HCMV protein expression. HEL fibroblasts were transfected with either a control miRNA or miR145 mimic (Dharmacon). The cells were infected with HCMV (MOI=1) 24 hours after transfection. Cell pellets were collected at 24, 48, 72, 96, 120 and 144 hpi, lysed and examined for viral protein expression by western blot.

In series [4] the test system is HCMV. The series is described as follows: HCMV viral titers in supernatants by plaque assay after miR145 mimic transfection. The class given is cell-based. The protocol:
This experiment was performed to determine whether altered regulation of miR145 following viral infection affects viral replication. HEL fibroblasts were transfected with either a control (ct) miRNA or a miR145 mimic (145) (Dharmacon). The cells were infected with HCMV (MOI=1) 24 hours after transfection. Supernatants were collected at 24, 48, 72, 96, 120 and 144 hpi and examined for viral titers by plaque assay. […] A 10-fold difference can be observed from 72 to 96 hpi. At 144 hpi, viral titers are similar in the control and miR145 mimic transfected cells. […] This is consistent with the hypothesis that downregulation of miR145 contributes to HCMV pathogenesis by enhancing its replication.

This is an account of results in US10227591B2, “Modulation of human cytomegalovirus replication by micro-RNA 132 (miR132), micro-RNA 145 (miR145) and micro-RNA 212 (miR212)” (priority 2009, dated 2019).

As to “miR132 LNA: miR132 specific antisense locked nucleic acid (Exiqon); exemplary sequence 5' CGACCATGGCTGTAGACTGTTA 3' (SEQ ID NO:13) (antisense CGACCATGGCTGTAGACTGTTA; LNA-modified antisense, pattern not given here)”, in the series on MeCP2, the MeCP2 protein levels entry is reported as “modest increase”. In addition, in series [1], the “expression of viral protein IE2” value is given as “reduced”, the “expression of viral protein gB55” value is given as “reduced” and the “expression of viral protein pp65” value is “reduced”. Besides, in the series on HCMV [2] (HEL cells transfected, then infected with HCMV, virus release and viral protein expression), the “decrease in virus replication” value is 3 fold. Besides, in the series on HCMV [2], the “viral replication (virus release, viral proteins IE2, pp65, gB55)” value was “attenuates viral replication”.

For “miR145 mimic: miR145 mimic (Dharmacon) transfected into HEL fibroblasts; mimics mature miR145 (SEQ ID NO:2) (GUCCAGUUUUCCCAGGAAUCCCU; mimic duplex, passenger strand not given here; listed as Homo sapiens)”, in the series with IRS-1, the IRS-1 protein level entry is recorded as “Downregulation”. Moreover, in series [3], the IE1 levels entry is reported as “Increased IE1 levels”, the “levels of the Early (E) protein pp65” value was “Decreased levels”, the “levels of the Immediate Early (IE) 2 protein” value is “Decreased levels” and the “levels of the Late (L) protein gB55” value was “Decreased levels”. Further, in the series on HCMV [4] (HEL fibroblasts transfected 24 h before HCMV infection (MOI=1), compared to control miRNA), the “viral titers in the supernatants” value is “decreased viral titers”. Further, the “viral titers versus control” value in the series with HCMV [4] (HEL fibroblasts, HCMV MOI=1, at 144 hpi) was “similar”. For the same substance, in the series with HCMV [4] (HEL fibroblasts, HCMV MOI=1, from 72 to 96 hpi, versus control miRNA), the “difference in viral titers” value was determined as 10 fold. The “reduction in viral titers” value in the series with HCMV [4] (fibroblast cells transfected, subsequently infected with HCMV) is recorded as above 1 log.

For the substance “miR212 LNA: miR212 specific antisense locked nucleic acid (Exiqon); exemplary sequence 5' GGCCGTGACTGGAGACTGTTA 3' (SEQ ID NO:14) (LNA-modified antisense, pattern not given here)”, in the series on MeCP2, the MeCP2 protein levels result is reported as “modest increase”. In addition, the “viral replication (virus release, viral proteins IE2, pp65, gB55)” value with HCMV [2] is “attenuates viral replication”.
